The target in one assay is BCL2 WT (Homo sapiens (Human), UniProt P10415). Put plainly: TR-FRET competitive binding assay, BCL2 WT. Particulars: Ki determined from IC50, read-out: TR_FRET EKI_Bcl2 WT. The gist of the method:
(§1)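 Competitive TR-FRET displacement of fluorescein-PUMA peptide (2 or 20 nM) from 0.5 nM terbium-labelled N-terminal Halo-fusion BCL2 (1-207, wild type or mutant) or BCLXL (2-196), expressed in E. coli. Buffer 50 mM Hepes pH 7.5, 150 mM NaCl, 5% DMSO; 2 h at 23°C. 520/495 nm ratio fitted over 11 points for IC50, converted to Ki.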

Assay [1] deals with BCL2 G101V (Homo sapiens, UniProt P10415, G101V). Put plainly: TR-FRET competitive binding assay, BCL2 G101V. Particulars: BCL2 G101V; Ki determined from IC50; read-out: TR_FRET EKI_Bcl2 G101V. The procedure, abridged:
as §1
(TR-FRET usually uses a lanthanide donor and a delayed reading to cut background.)

For assay [2], the system named is BCL2 G101V. Put plainly: TR-FRET competitive binding assay, BCL2 G101V. The arrangement: species or system human. To be noted: ratio Ki BCL2 G101V / Ki BCL2 WT. The procedure, abridged: as §1
The next assay concerns the target BCL2 D103Y (Homo sapiens, UniProt P10415, D103Y). Put plainly: TR-FRET competitive binding assay, BCL2 D103Y. To be noted: Ki determined from IC50, read-out: TR_FRET EKI_Bcl2 D103Y. The procedure, abridged: as §1
The next assay deals with BCL2 F104I (Homo sapiens, UniProt P10415, F104I). Put plainly: TR-FRET competitive binding assay, BCL2 F104I. To be noted: Ki determined from IC50, read-out: TR_FRET EKI_Bcl2 F104I. As for the experimental part: (§2) The relative binding potency of each compound was determined in a competitive binding assay using time resolved-fluorescence resonance energy transfer (TR-FRET). The method utilised a fluorescein labelled peptide derived from PUMA (5Flu-Ahx-[…]-NH2 wherein Ahx means 6-hexanoic acid monomer and the amino acid sequence is referred to as SEQ ID:01) which binds to a terbium labelled BCL2 or BCLXL protein. The degree of binding or corresponding compound inhibition can be quantified by the TR-FRET signal between the terbium donor and fluorescein acceptor.
(§3) The human BCL2_wild-type (also named BCL2_wt), BCL2_G101V mutant and BCLXL_wild-type were E. coli expressed as a N-terminal Halo-fusion proteins and singly labelled with Terbium on the Halo protein to afford the following amino acid sequences:
(§4) wherein the BCL2(1-207) sequence corresponds to UniProtKB® primary accession number P10415 and the BCLXL(2-196) sequence corresponds to UniProtKB® primary accession number Q07817-1.
(§5) The assay was performed in a 40 μL volume in white 384-standard well plates (Corning #3574). An 11-point serial dilution of each compound was prepared in DMSO and transferred directly to plate followed by addition of fluorescein labelled peptide and lastly protein. Final assay conditions were 0.5 nM BCL2_wt, BCL2_G101V, BCL2_D103Y, BCL2_F104I, BCL2_D111A or BCLXL_wt, 2 or 20 nM fluorescein labelled peptide, 50 mM Hepes pH 7.5, 150 mM NaCl, 0.5 mM TCEP (Tris(2-carboxyethyl)phosphine), 0.05% Tween 20, 5% DMSO. The mixture was incubated for 2 hours at 23° C.
(§6) TR-FRET measurements were performed on a Biotek Synergy Neo plate reader. TR-FRET was measured by excitation of the Terbium-donor at 340 nm and subsequent (delay time 100 μs) measurement of terbium and fluorescein emission at 495 nm and 520 nm, respectively, over a collection time of 300 μs. The TR-FRET signal was calculated as the emission-ratio at 520 nm over 495 nm.
(§7) The TR-FRET ratio readout for test compounds was normalized against 0% inhibition controls wells and 100% inhibition control wells. Test compound potency (IC50) was estimated by nonlinear regression using the sigmoidal dose-response (variable slope) using Xlfit 4 (IDBS, Guildford, Surrey, UK, model 205). Were the IC50 could not be determined the % inhibition at the highest tested concentration is given.
(§8) y=(A+((B−A)/(1+((C/x)^D))))
(§9) where y is the normalized TR-TRET ratio measurement for a given concentration of test compound, x is the concentration of test compound, A is the estimated efficacy (% inhibition) at infinite compound dilution, and B is the maximal efficacy (% inhibition). C is the IC50 value and D is the Hill slope coefficient.
(§10) The K1 values were determined from the IC50 values according to Cer et al, Nucleic Acids Res, 2009, July 1; 37 (WebServer issue): W441-W445.

A further assay has as its target BCL2 D111A (Homo sapiens, UniProt P10415, D111A). Put plainly: TR-FRET competitive binding assay, BCL2 D111A. Particulars: Ki determined from IC50, read-out: TR_FRET EKI_Bcl2 D111A. How it is done:
as §2, §3, §4, §5, §6, §7, §8, §9, §10

Another assay has as its target BCLXL WT (Homo sapiens (Human), UniProt Q07817). Put plainly: TR-FRET competitive binding assay, BCLXL WT. To be noted: for Ki: BCLXL WT, Ki determined from IC50, read-out: TR_FRET EKI BclxL; for TR_FRET EKI BCLxL/WT selectivty ratio: ratio Ki BCLxL / Ki BCL2 WT. The procedure, abridged: as §1
A further assay concerns KMS-12-PE Bcl-2 WT. Put plainly: In vitro cytotoxicity CellTiter-Glo 48 h, KMS-12-PE Bcl-2 WT. Type of assay: cell-based. Particulars: Homo sapiens, KMS-12-PE, C50 = concentration needed to reach 50% of the cellular viability. The gist of the method:
(§11)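 Potency is expressed as C50, the compound concentration at which viability of engineered KMS-12-PE cells (Bcl-2 wild type or G101V) falls to 50%, determined from CellTiter-Glo luminescence after 48 h of treatment over 11 concentrations.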
A general note: ATP-based viability assays read luminescence as a measure of living cells.

The next assay deals with KMS-12-PE Bcl-2 G101V. Put plainly: In vitro cytotoxicity CellTiter-Glo 48 h, KMS-12-PE Bcl-2 G101V. Format: cell-based. Particulars: for Ratio (G101V/WT): C50 KMS-12-PE Bcl-2 G101V over C50 KMS-12-PE Bcl-2 WT; for IC50: 48 h, CellTiter-Glo, C50 = concentration needed to reach 50% of the cellular viability. The procedure, abridged: as §11

BCLXL WT, sequence (Q07817 other isoform, or with tags, fused parts or gaps): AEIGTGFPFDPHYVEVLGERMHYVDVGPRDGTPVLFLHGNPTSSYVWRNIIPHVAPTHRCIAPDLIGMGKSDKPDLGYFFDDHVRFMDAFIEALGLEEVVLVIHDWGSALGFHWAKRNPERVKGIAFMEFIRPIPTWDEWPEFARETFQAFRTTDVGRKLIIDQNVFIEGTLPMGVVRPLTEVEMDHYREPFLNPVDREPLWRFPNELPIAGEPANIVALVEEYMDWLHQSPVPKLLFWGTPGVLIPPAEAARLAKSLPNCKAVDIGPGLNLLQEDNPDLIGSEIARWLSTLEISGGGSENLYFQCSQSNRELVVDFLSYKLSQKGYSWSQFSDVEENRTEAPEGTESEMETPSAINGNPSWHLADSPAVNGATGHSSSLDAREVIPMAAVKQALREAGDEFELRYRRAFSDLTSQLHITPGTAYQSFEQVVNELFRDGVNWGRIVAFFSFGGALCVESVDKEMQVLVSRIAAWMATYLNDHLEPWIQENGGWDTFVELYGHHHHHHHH

What is called IC50 is the concentration that gives 50% inhibition. Low readings indicate greater potency in that assay, high ones weaker potency in that assay. As for `Cc1c(N(C(=O)c2cc(-c3cc4c(cc3C(=O)N3Cc5ccccc5C[C@H]3C)CN(C(=O)Cc3ccc(N5CCC(N6CCOCC6)C5)cc3)CC4)n(C)c2C)c2ccc(O)cc2)cc(C#N)n1C` (single isomer, unassigned) [Example 63, N-(5-cyano-1,2-dimethyl-1H-pyrrol-3-yl)-N-(4-hydroxyphenyl)-1,2-dimethyl-5-{7-[(3R)-3-methyl-1,2,3,4-tetrahydroisoquinoline-2-carbonyl]-2-(2-{4-[(3R or S)-3-(morpholin-4-yl)pyrrolidin-1-yl]phenyl}acetyl)-1,2,3,4-tetrahydroisoquinolin-6-yl}-1H-pyrrole-3-carboxamide], the Ki on BCL2 WT was 0.11 nM; at BCL2 G101V [1], 0.9 nM; at BCL2 D103Y, 0.46 nM; at BCL2 F104I it was 2.84 nM; at BCL2 D111A, 0.42 nM; on BCLXL WT it was 1.7 nM. In the assay with BCL2 G101V [2], the “TR_FRET EKI G101V/WT selectivty ratio” value is 7.8. The “TR_FRET EKI BCLxL/WT selectivty ratio” value on BCLXL WT worked out at 15.5. Moreover, the IC50 in the assay on KMS-12-PE Bcl-2 WT was 0.0079 µM; in the assay with KMS-12-PE Bcl-2 G101V (Homo sapiens, KMS-12-PE) it was 0.046 µM. In addition, in the assay with KMS-12-PE Bcl-2 G101V, the “Ratio (G101V/WT)” value stood at 5.84.

Consider `Cc1c(N(C(=O)c2cc(-c3cc4c(cc3C(=O)N3Cc5ccccc5C[C@H]3CN3CCCCC3)CN(C(=O)Cc3ccc(OCCN5CCOC(C)C5)cc3F)CC4)n(C)c2C)c2ccc(O)cc2)cc(C#N)n1C` (single isomer, unassigned) [Example 108, N-(5-cyano-1,2-dimethyl-1H-pyrrol-3-yl)-5-[2-(2-{2-fluoro-4-[2-((2S or R)-2-methylmorpholin-4-yl)ethoxy]phenyl}acetyl)-7-[(3S)-3-[(piperidin-1-yl)methyl]-1,2,3,4-tetrahydroisoquinoline-2-carbonyl]-1,2,3,4-tetrahydroisoquinolin-6-yl]-N-(4-hydroxyphenyl)-1,2-dimethyl-1H-pyrrole-3-carboxamide], for which the Ki at BCL2 WT came out at 0.07 nM; on BCL2 G101V [1] it was 0.4 nM; at BCL2 D103Y, 0.14 nM; at BCL2 F104I it was 0.19 nM; on BCL2 D111A it was 0.16 nM; at BCLXL WT it was 2.1 nM. Moreover, in the assay with BCL2 G101V [2], the “TR_FRET EKI G101V/WT selectivty ratio” value is given as 5.1. The “TR_FRET EKI BCLxL/WT selectivty ratio” value at BCLXL WT was 30.9. The IC50 in the assay with KMS-12-PE Bcl-2 WT came out at 0.0066 µM; in the assay with KMS-12-PE Bcl-2 G101V (Homo sapiens, KMS-12-PE), 0.0383 µM. Also, in the assay on KMS-12-PE Bcl-2 G101V, the “Ratio (G101V/WT)” value amounted to 5.85.

As for `Cc1c(N(C(=O)c2cc(-c3cc4c(cc3C(=O)N3Cc5ccccc5C[C@H]3CN3CCCCC3)CN(C(=O)Cc3ccc(OCC(C)N5CCOCC5)cc3)CC4)n(C)c2C)c2ccc(O)cc2)cc(C#N)n1C` (single isomer, unassigned) [Example 127, N-(5-cyano-1,2-dimethyl-1H-pyrrol-3-yl)-N-(4-hydroxyphenyl)-1,2-dimethyl-5-[2-(2-{4-[(2S or R)-2-(morpholin-4-yl)propoxy]phenyl}acetyl)-7-[(3S)-3-[(piperidin-1-yl)methyl]-1,2,3,4-tetrahydroisoquinoline-2-carbonyl]-1,2,3,4-tetrahydroisoquinolin-6-yl]-1H-pyrrole-3-carboxamide], the Ki at BCL2 WT turned out to be 0.05 nM; at BCL2 G101V [1], 0.2 nM; at BCL2 D103Y it was 0.16 nM; at BCL2 F104I, 0.26 nM; at BCL2 D111A, 0.13 nM; at BCLXL WT, 3.6 nM. The “TR_FRET EKI G101V/WT selectivty ratio” value with BCL2 G101V [2] is given as 4.3. The “TR_FRET EKI BCLxL/WT selectivty ratio” value on BCLXL WT is on record as 76.6. The IC50 came to 0.0077 µM in the assay on KMS-12-PE Bcl-2 WT and 0.0277 µM with KMS-12-PE Bcl-2 G101V. In addition, the “Ratio (G101V/WT)” value in the assay with KMS-12-PE Bcl-2 G101V was 3.58.

As to `Cc1c(N(C(=O)c2cc(-c3cc4c(cc3C(=O)N3Cc5ccccc5C[C@H]3CN3CCCCC3)CN(C(=O)Cc3ccc(OCC(C)N5CCOCC5)cc3F)CC4)n(C)c2C)c2ccc(O)cc2)cc(C#N)n1C` (single isomer, unassigned) [Example 135, N-(5-cyano-1,2-dimethyl-1H-pyrrol-3-yl)-5-[2-(2-{2-fluoro-4-[(2S or R)-2-(morpholin-4-yl)propoxyphenyl}acetyl)-7-[(3S)-3-[(piperidin-1-yl)methyl]-1,2,3,4-tetrahydroisoquinoline-2-carbonyl]-1,2,3,4-tetrahydroisoquinolin-6-yl]-N-(4-hydroxyphenyl)-1,2-dimethyl-1H-pyrrole-3-carboxamide], the Ki amounted to 0.07 nM on BCL2 WT; 0.4 nM on BCL2 G101V [1]; 0.21 nM at BCL2 D103Y; 0.34 nM at BCL2 F104I; 0.17 nM on BCL2 D111A; 4.5 nM at BCLXL WT. For the same compound, the “TR_FRET EKI G101V/WT selectivty ratio” value in the assay on BCL2 G101V [2] was found to be 5.8. The “TR_FRET EKI BCLxL/WT selectivty ratio” value at BCLXL WT turned out to be 60.8. The IC50 with KMS-12-PE Bcl-2 WT stood at 0.0044 µM; in the assay with KMS-12-PE Bcl-2 G101V (Homo sapiens, KMS-12-PE), 0.0339 µM. In addition, the “Ratio (G101V/WT)” value with KMS-12-PE Bcl-2 G101V is reported as 7.72.

As for `Cc1c(N(C(=O)c2cc(-c3cc4c(cc3C(=O)N3Cc5ccccc5C[C@H]3C)CN(C(=O)c3cnc(-c5ccccc5)s3)CC4)n(C)c2C)c2ccc(O)cc2)cc(C#N)n1C` [Example 17, N-(5-cyano-1,2-dimethyl-1H-pyrrol-3-yl)-N-(4-hydroxyphenyl)-1,2-dimethyl-5-{7-[(3R)-3-methyl-1,2,3,4-tetrahydroisoquinoline-2-carbonyl]-2-(2-phenyl-1,3-thiazole-5-carbonyl)-1,2,3,4-tetrahydroisoquinolin-6-yl}-1H-pyrrole-3-carboxamide], the Ki at BCL2 WT amounted to 0.65 nM; at BCL2 G101V [1] it was 4 nM; at BCL2 D103Y it was 4.1 nM; at BCL2 F104I it was 33.9 nM; on BCL2 D111A it was 3.34 nM; at BCLXL WT it was 9.6 nM. The “TR_FRET EKI G101V/WT selectivty ratio” value in the assay on BCL2 G101V [2] came out at 6.2. Also, at BCLXL WT, the “TR_FRET EKI BCLxL/WT selectivty ratio” value is given as 14.8. In addition, the IC50 came out at 0.0032 µM in the assay with KMS-12-PE Bcl-2 WT and 0.0144 µM with KMS-12-PE Bcl-2 G101V (Homo sapiens, KMS-12-PE). Also, the “Ratio (G101V/WT)” value in the assay on KMS-12-PE Bcl-2 G101V is 4.51.

The record behind these values is patent US20250179047A1, “5-[7-(3,4-DIHYDRO-1H-ISOQUINOLINE-2-CARBONYL)-1,2,3,4 TETRAHYDROISOQUINOLIN-6-YL]-1H-PYRROLE-3-CARBOXAMIDE DERIVATIVES, PHARMACEUTICAL COMPOSITIONS CONTAINING THEM AND THEIR USES AS PRO-APOPTOTIC AGENTS” (LES LABORATOIRES SERVIER, priority 2022, published 2025).
